{"source": "patent US10975057B2", "about": "“6-aminopyridin-3-yl pyrazoles as modulators of RORgT” (Janssen Pharmaceutica NV, priority 2018, dated 2021)", "key": {"[1]": {"test_system": "IL-17 production by CD4 T cells", "test": "cells", "conditions": "Homo sapiens, 72 h, read-out: Human Th17 Assay, IC50 (μM)", "protocol": "The human Th17 assay tests the effect of RORγt modulatory compounds on IL-17 production by CD4 T cells under conditions which favor Th17 differentiation. Total CD4^+ T cells were isolated from the peripheral blood mononuclear cells (PBMC) of healthy donors using a CD4^+ T cell isolation kit II, following the manufacturer's instructions (Miltenyi Biotec). […] 50 μL of compound at titrated concentrations in DMSO were added into each well at final DMSO concentration at 0.2%. Cells were incubated for 1 hour, then 50 μL of Th17 cell differentiation medium was added to each well. The final concentrations of antibodies and cytokines (R&D Systems) in differentiation medium were: 3×10^6/mL anti-CD3/CD28 beads (prepared using human T cell activation/expansion kit, Miltenyi Biotec), 10 μg/mL anti-IL4, 10 μg/mL anti-IFNγ, 10 ng/mL IL1β, 10 ng/mL IL23, 50 ng/mL IL6, 3 ng/mL TGFβ and 20 U/mL IL2. Cells were cultured at 37° C. and 5% CO2 for 3 days. Supernatants were collected and the accumulated IL-17 in culture was measured by using MULTI-SPOT® Cytokine Plate following manufacture's instruction (Meso Scale Discovery). The plate was read using Sector Imager 6000, and IL-17 concentration was extrapolated from the standard curve. The IC50s were determined by GraphPad."}, "[2]": {"test_system": "obese diabetic mice", "conditions": "cited from earlier work"}, "[3]": {"test_system": "Th17-dependent learned helplessness", "conditions": "mice; cited from earlier work"}}}
{"smiles": "CCn1nc(C(=O)NC[C@H]2CC[C@H](S(C)(=O)=O)CC2)c(Cl)c1-c1cnc(N[C@H](C)C(F)(F)F)cc1OC", "note": "[Example 98, 4-Chloro-1-ethyl-5-(4-methoxy-6-(((R)-1,1,1-trifluoropropan-2-yl)amino)pyridin-3-yl)-N-(((1r,4R)-4-(methylsulfonyl)cyclohexyl)methyl)-1H-pyrazole-3-carboxamide]", "values": [{"measurement": "IC50", "setting": "[1]", "result": 0.14, "unit": "µM"}]}
{"smiles": "CCn1nc(C(=O)NC[C@]2(O)CC[C@@H](S(C)(=O)=O)CC2)c(Cl)c1-c1cnc(NC(C)(C)CC(F)(F)F)cc1C(F)F", "note": "[Example 97, 4-Chloro-5-(4-(difluoromethyl)-6-((4,4,4-trifluoro-2-methylbutan-2-yl)amino)pyridin-3-yl)-1-ethyl-N-(((1s,4s)-1-hydroxy-4-(methylsulfonyl)cyclohexyl)methyl)-1H-pyrazole-3-carboxamide]", "values": [{"measurement": "IC50", "setting": "[1]", "result": 0.0033, "unit": "µM"}]}
{"smiles": "CC(=O)N1CCN(Cc2ccc(-c3ccc(C(O)(C(F)(F)F)C(F)(F)F)cc3)cc2)CC1", "note": "[SR1555]", "values": [{"measurement": "body weight", "setting": "[2]", "result": "reduced body weight"}, {"measurement": "fat mass", "setting": "[2]", "result": "significant reduction in fat mass"}, {"measurement": "food intake", "setting": "[2]", "result": "modest reduction in food intake"}, {"measurement": "insulin sensitivity", "setting": "[2]", "result": "improved insulin sensitivity"}]}
{"smiles": "CC(=O)Nc1nc(C)c(S(=O)(=O)Nc2ccc(C(O)(C(F)(F)F)C(F)(F)F)cc2)s1", "note": "[SR1001]", "values": [{"measurement": "Th17-dependent learned helplessness", "setting": "[3]", "result": "reduced Th17-dependent learned helplessness"}]}
{"smiles": "CCc1cc(NC(C)(C)CC(F)(F)F)ncc1-c1c(Cl)c(C(=O)NC[C@]2(O)CC[C@@H](S(C)(=O)=O)CC2)nn1CC", "note": "[Example 18, 4-Chloro-1-ethyl-5-(4-ethyl-6-((4,4,4-trifluoro-2-methylbutan-2-yl)amino)pyridin-3-yl)-N-(((1s,4s)-1-hydroxy-4-(methylsulfonyl)cyclohexyl)methyl)-1H-pyrazole-3-carboxamide]", "values": [{"measurement": "IC50", "setting": "[1]", "result": 0.0041, "unit": "µM"}]}
{"smiles": "CCn1nc(C(=O)NC[C@]2(O)CC[C@@H](S(C)(=O)=O)CC2)c(Cl)c1-c1cnc(NC(C)(C)CC(F)(F)F)cc1OC(F)F", "note": "[Example 15, 4-Chloro-5-(4-(difluoromethoxy)-6-((4,4,4-trifluoro-2-methylbutan-2-yl)amino)pyridin-3-yl)-1-ethyl-N-(((1s,4s)-1-hydroxy-4-(methylsulfonyl)cyclohexyl)methyl)-1H-pyrazole-3-carboxamide]", "values": [{"measurement": "IC50", "setting": "[1]", "result": 0.0062, "unit": "µM"}]}
{"smiles": "CCn1nc(C(=O)NC[C@]2(O)CC[C@@H](S(C)(=O)=O)CC2)c(Cl)c1-c1cnc(NC(C)(C)CC(F)(F)F)cc1C(C)C", "note": "[Example 16, 4-Chloro-1-ethyl-N-(((1s,4s)-1-hydroxy-4-(methylsulfonyl)cyclohexyl)methyl)-5-(4-isopropyl-6-((4,4,4-trifluoro-2-methylbutan-2-yl)amino)pyridin-3-yl)-1H-pyrazole-3-carboxamide]", "values": [{"measurement": "IC50", "setting": "[1]", "result": 0.017, "unit": "µM"}]}
{"smiles": "CCn1nc(C(=O)NC[C@]2(O)CC[C@@H](S(C)(=O)=O)CC2)c(Cl)c1-c1cnc(NC(C)(C)CC(F)(F)F)cc1OC", "note": "[Example 79, 4-Chloro-1-ethyl-N-(((1s,4s)-1-hydroxy-4-(methylsulfonyl)cyclohexyl)methyl)-5-(4-methoxy-6-((4,4,4-trifluoro-2-methylbutan-2-yl)amino)pyridin-3-yl)-1H-pyrazole-3-carboxamide]", "values": [{"measurement": "IC50", "setting": "[1]", "result": 0.013, "unit": "µM"}]}
{"smiles": "CCn1nc(C(=O)NC[C@]2(O)CC[C@@H](S(C)(=O)=O)CC2)c(C)c1-c1cnc(NC(C)(C)CC(F)(F)F)cc1OC(F)F", "note": "[Example 1, 5-(4-(Difluoromethoxy)-6-((4,4,4-trifluoro-2-methylbutan-2-yl)amino)pyridin-3-yl)-1-ethyl-N-(((1s,4s)-1-hydroxy-4-(methylsulfonyl)cyclohexyl)methyl)-4-methyl-1H-pyrazole-3-carboxamide]", "values": [{"measurement": "IC50", "setting": "[1]", "result": 0.0066, "unit": "µM"}]}
